In PubChem BioAssay (NCI):
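Briefly, cells in 96-well plates were exposed to five compound concentrations for 48 h, and endpoints were estimated by linear interpolation. GI50 is the concentration that inhibits growth by half. TGI is the concentration that stops growth completely.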

Experiments:
Experiment in all cases: inhibition of tumour cell growth, NCI panel, 48 h
NCI-H460 lung = system: NCI-H460 lung
UO-31 renal = system: UO-31 renal
OVCAR-8 ovarian = system: OVCAR-8 ovarian
K-562 leukemia = system: K-562 leukemia
HOP-62 NSCLC = system: HOP-62 NSCLC
EKVX NSCLC = system: EKVX NSCLC
SN12C renal = system: SN12C renal
A498 renal = system: A498 renal
UACC-257 melanoma = system: UACC-257 melanoma
HCT-15 colon = system: HCT-15 colon

| SMILES | TGI (NCI-H460 lung) [µM] | TGI (UO-31 renal) [µM] | TGI (OVCAR-8 ovarian) [µM] | TGI (K-562 leukemia) [µM] | TGI (HOP-62 NSCLC) [µM] | TGI (EKVX NSCLC) [µM] | TGI (SN12C renal) [µM] | TGI (A498 renal) [µM] | TGI (UACC-257 melanoma) [µM] | TGI (HCT-15 colon) [µM] | GI50 (NCI-H460 lung) [µM] | GI50 (UO-31 renal) [µM] | GI50 (OVCAR-8 ovarian) [µM] | GI50 (K-562 leukemia) [µM] | GI50 (EKVX NSCLC) [µM] | GI50 (SN12C renal) [µM] | GI50 (A498 renal) [µM] | GI50 (UACC-257 melanoma) [µM] | GI50 (HCT-15 colon) [µM] |
| --- | --- | --- | --- | --- | --- | --- | --- | --- | --- | --- | --- | --- | --- | --- | --- | --- | --- | --- | --- |
| COCCOC(=O)c1c(C)n([O-])c2cc(Cl)c(Cl)cc2[n+]1=O | 25.9 | 10.5 | 25.7 | 34.7 | 35 | 36.8 | 70 | 61.9 | > 100 | 22.3 | – | – | – | – | – | – | – | – | – |
| CN1CCc2[nH]c3ccccc3c2C1 | > 100 | > 100 | > 100 | > 100 | > 100 | > 100 | > 100 | > 100 | > 100 | > 100 | – | – | – | – | – | – | – | – | – |
| COC1=C(OC)C(=O)C(Cc2c(Cl)nc3sc(C)cn23)=C(C)C1=O | 37.8 | 42.9 | 41.2 | 45.5 | 36 | 35.6 | 30.5 | 65.5 | 22.8 | 67.9 | – | – | – | – | – | – | – | – | – |
| CCCCCCCCCCCCCCCCCCOc1ccccc1CC(=O)OCC[N+]1(C)CCCCC1 | 5.43 | 19.7 | 5.99 | 10.1 | – | 17.5 | 4.93 | 9.71 | 7.91 | 27.7 | 2.34 | 4.14 | 2.4 | 2.83 | 2.65 | 2.07 | 2.53 | 2.79 | 4.65 |
| OC1(c2cccs2)c2cccc(Cl)c2C(O)(c2cccs2)c2c(Cl)cccc21 (stereo not drawn) | > 100 | > 100 | > 100 | > 100 | > 100 | > 100 | > 100 | > 100 | > 100 | > 100 | – | – | – | – | – | – | – | – | – |
| CC(CCN)(CCN)[N+](=O)[O-] | > 100 | > 100 | > 100 | > 100 | > 100 | > 100 | > 100 | > 100 | > 100 | > 100 | – | – | – | – | – | – | – | – | – |
| CCCCCCCCCCCCCCCCCCNC(=O)C(N)Cc1ccc(OCc2ccccc2)cn1 (stereo not drawn) | 29.9 | 32.5 | 37.3 | 95.1 | 40 | 46.8 | 49.3 | 35.4 | 43.7 | 37.3 | – | – | – | – | – | – | – | – | – |
| CN1CCOC(c2ccc(Cl)cc2)O1 (stereo not drawn) | > 100 | > 100 | > 100 | > 100 | > 100 | > 100 | > 100 | > 100 | > 100 | > 100 | – | – | – | – | – | – | – | – | – |
| CN(C)CCCSc1nc2ccccc2[nH]1 | > 100 | > 100 | > 100 | > 100 | > 100 | > 100 | > 100 | > 100 | > 100 | > 100 | – | – | – | – | – | – | – | – | – |
| CN(CCCCCl)P(=O)(OCc1ccc([N+](=O)[O-])o1)OC[C@H]1O[C@@H](n2cc(F)c(=O)[nH]c2=O)C[C@@H]1O (stereo partly drawn) | 45.5 | > 100 | > 100 | > 59.4 | 25.6 | > 100 | 9.07 | 0.0982 | > 68 | > 100 | – | – | – | – | – | – | – | – | – |
| Cn1c2ccccc2n2c(N=O)c(-c3ccccc3)nc12 | 48.3 | > 100 | > 100 | > 100 | 27.6 | > 100 | > 100 | > 100 | > 100 | > 100 | – | – | – | – | – | – | – | – | – |
